The record followed here is PubChem BioAssay (NCI).

Test systems include HT29 colon; 786-0 renal; SF-268 CNS; MDA-N; HOP-62 NSCLC; IGROV1 ovarian; PC-3 prostate; SK-OV-3 ovarian; KM12 colon; SF-539 CNS; SR leukemia.
Holding throughout (experiment): NCI anticancer screen, dose series, 48 h

Structures are written as SMILES. Where “and” joins values, the source holds several entries; their conditions need not be identical. Equal values may be shown once.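 Method: 48-hour compound exposure of cells in 96-well plates, five concentrations, linear interpolation of endpoints. GI50 marks 50% less growth. TGI denotes the concentration required for complete inhibition of growth.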

As to `CC1CC(=O)Nc2ccc(N=NN(C)C)cc2N1C=O` (configuration not stated), the TGI in the experiment on HT29 colon, in the experiment on 786-0 renal, in the experiment on SF-268 CNS, with MDA-N, with HOP-62 NSCLC and in the experiment with IGROV1 ovarian was over 100 µM each time. The TGI in the experiment on PC-3 prostate, in the experiment on SK-OV-3 ovarian and with KM12 colon was over 100 µM each time.

Consider `C[C@H](CN1CC(=O)NC(=O)C1)N1CC(=O)NC(=O)C1`, for which the TGI in the experiment on HT29 colon, with SF-268 CNS, in the experiment on SF-539 CNS, in the experiment on HOP-62 NSCLC, with IGROV1 ovarian and in the experiment on SK-OV-3 ovarian was over 100 µM in each case. For the same compound, in the experiment with KM12 colon, the TGI is over 100 µM.

Regarding `COc1cc(O)c2c(=O)c(OC)c(-c3ccc4c(c3)OCO4)oc2c1OC`, the TGI in the experiment with HT29 colon, in the experiment on 786-0 renal, with SF-268 CNS, in the experiment with MDA-N, with SF-539 CNS and in the experiment on HOP-62 NSCLC was over 50 µM throughout. Further, the TGI with IGROV1 ovarian, with PC-3 prostate, in the experiment on SK-OV-3 ovarian and with KM12 colon was over 50 µM in each case.

For the compound `CC(=O)NC(C)c1ccc(N=NN2CCCC2)cc1` (configuration not stated), the TGI in the experiment on HT29 colon, in the experiment with 786-0 renal, with SF-268 CNS, in the experiment on MDA-N, in the experiment on SF-539 CNS and in the experiment on HOP-62 NSCLC was over 100 µM throughout. Besides, the TGI in the experiment on IGROV1 ovarian, in the experiment with PC-3 prostate, in the experiment on SK-OV-3 ovarian and in the experiment on KM12 colon was over 100 µM throughout.

For `CNc1ncnc2c1nnn2C`, the TGI with HT29 colon, in the experiment with 786-0 renal, with MDA-N, with SF-539 CNS, in the experiment on HOP-62 NSCLC and in the experiment with IGROV1 ovarian was over 100 µM throughout. The TGI in the experiment with PC-3 prostate, with SK-OV-3 ovarian and in the experiment on KM12 colon was over 100 µM throughout.

Take `C=C1C(=O)O[C@@H]2OC3(C)CCC4C(C)CCC1C42OO3` (some centres not stated): the GI50 was 3.21 µM in the experiment on HT29 colon; 4.56 µM with SF-268 CNS; 3.07 µM with SF-539 CNS; 4.71 µM with IGROV1 ovarian; 2.66 µM in the experiment on KM12 colon. Further, the TGI in the experiment with HT29 colon is 11.2 µM and 6.73 µM; in the experiment on SF-268 CNS, 18.1 µM and 11.6 µM; in the experiment with SF-539 CNS, 11.7 µM and 6.62 µM; in the experiment on HOP-62 NSCLC, 36.7 µM; in the experiment with IGROV1 ovarian, 16.7 µM and 12.7 µM; with SK-OV-3 ovarian, 34.7 µM. For the same compound, the TGI with KM12 colon was 9.02 µM and 16.4 µM.

Take `O=C1OC(c2ccc(Cl)cc2)(c2ccc(Cl)cc2)c2c1ccc1ccccc21`: the TGI in the experiment with HT29 colon, in the experiment on SF-268 CNS, in the experiment on IGROV1 ovarian, in the experiment on SK-OV-3 ovarian and in the experiment with KM12 colon was over 100 µM each time.

On to `N/C(=N\N=C\c1cc2c(cc1Cl)OCO2)NO`, for which the TGI with HT29 colon was over 100 µM; in the experiment with SF-268 CNS, over 100 µM; with SF-539 CNS, over 95.6 µM; in the experiment on HOP-62 NSCLC, over 100 µM; with IGROV1 ovarian it was over 100 µM; in the experiment with SK-OV-3 ovarian it was over 92.5 µM. For the same compound, the TGI in the experiment on KM12 colon is over 100 µM.

As for `Cc1oncc1NC1=CC(=O)C(=O)c2ccccc21`, the TGI in the experiment on HT29 colon worked out at 11.6 µM; in the experiment on 786-0 renal it was 32.2 µM; in the experiment with SF-268 CNS it was 30.3 µM; with SF-539 CNS, 15.1 µM; with HOP-62 NSCLC it was 36.8 µM; in the experiment with IGROV1 ovarian, 11.8 µM. For the same compound, the TGI in the experiment with PC-3 prostate worked out at 10 µM; in the experiment with SK-OV-3 ovarian, 37.8 µM; in the experiment with KM12 colon, 42.1 µM; in the experiment with SR leukemia it was 34.6 µM.

As to `CCCCCCCC(=O)OCC(C[As](=O)(O)O)OC(=O)CCCCCCC` (configuration not stated), the TGI in the experiment on HT29 colon was 33.4 µM; in the experiment with 786-0 renal it was 30.9 µM; in the experiment with SF-268 CNS, 28.7 µM; in the experiment with SF-539 CNS, 27.1 µM; in the experiment on HOP-62 NSCLC, 34.5 µM; with IGROV1 ovarian it was 26.9 µM. Also, the TGI worked out at 29.1 µM with SK-OV-3 ovarian and 60.8 µM in the experiment on SR leukemia.

As for `COc1cc([C@@H]2c3cc4c(cc3[C@@H](N=Cc3ccc(C(=O)O[C@@H](C(=O)O[C@H]5C[C@@]6(O)[C@@H](OC(=O)c7ccccc7)[C@@H]7[C@]8(OC(C)=O)CO[C@@H]8C[C@H](O)[C@@]7(C)C(=O)[C@H](OC(C)=O)C(=C5C)C6(C)C)[C@@H](NC(=O)c5ccccc5)c5ccccc5)cc3)[C@H]3COC(=O)[C@H]23)OCO4)cc(OC)c1O`, the TGI in the experiment with HT29 colon is 1.92 µM; in the experiment with 786-0 renal it was over 50 µM; with SF-268 CNS, over 50 µM; in the experiment with MDA-N it was 0.0663 µM; with SF-539 CNS, 1.47 µM; in the experiment on HOP-62 NSCLC it was over 50 µM. For the same compound, the TGI with IGROV1 ovarian is over 50 µM; in the experiment with SK-OV-3 ovarian, over 22.7 µM; in the experiment with KM12 colon it was over 50 µM.

Turning to `C=CC[C@@H]1C=C[C@@H](C(=O)OC)n2c(=O)n(-c3ccccc3)c(=O)n21`, the TGI with HT29 colon, in the experiment on 786-0 renal, with SF-268 CNS, in the experiment on SF-539 CNS, with HOP-62 NSCLC and with IGROV1 ovarian was over 100 µM in each case. Also, the TGI in the experiment with SK-OV-3 ovarian, in the experiment with KM12 colon and in the experiment with SR leukemia was over 100 µM throughout.

Take `COc1ccc(NCc2cnc3nc(N)nc(N)c3c2C)cc1`: the TGI with HT29 colon, with 786-0 renal, with SF-268 CNS, with SF-539 CNS, with HOP-62 NSCLC and with IGROV1 ovarian was over 100 µM in each case. The TGI with PC-3 prostate, in the experiment with SK-OV-3 ovarian, with KM12 colon and in the experiment with SR leukemia was over 100 µM throughout.

Take `Cc1ccc(S(=O)(=O)C2c3nc4ccccc4cc3-c3nc4ccccc4nc32)cc1` (configuration not stated): the TGI with 786-0 renal, in the experiment on SF-268 CNS, in the experiment on SF-539 CNS, with HOP-62 NSCLC, in the experiment with IGROV1 ovarian and with SK-OV-3 ovarian was over 100 µM throughout. The TGI in the experiment with KM12 colon and in the experiment with SR leukemia was over 100 µM throughout.

Take `CC(C)=CCCC1(Sc2ccccc2)C(=O)OCC1C=C(C)C` (configuration not stated): the TGI with 786-0 renal was 73.7 µM; in the experiment on SF-268 CNS it was over 100 µM; in the experiment on MDA-N, 66.1 µM; with SF-539 CNS it was 47.9 µM; with HOP-62 NSCLC it was over 100 µM; in the experiment with IGROV1 ovarian, 60.4 µM. Moreover, the TGI with PC-3 prostate, in the experiment on SK-OV-3 ovarian and with KM12 colon was over 100 µM in each case.
